Reference: ChEMBL document CHEMBL5518219, “Development of a Series of Pyrrolopyridone MAT2A Inhibitors” (J Med Chem, 2024)
In brackets after ≈: the same amount, converted by molar mass. Activity calls are given as the source filed them. The calls are words filed in the database; no cut-off is given here.

How the values were obtained:
[1] = Metabolic stability in rat hepatocytes assessed as intrinsic clearance measured per 10^6 cells; type: ADME, cell-based, Hepatocyte
[2] = Lipophilicity, logD of compound at pH 7.4 by shake flask method; type: physicochemical; conditions: buffer
[3] = target: S-adenosylmethionine synthase isoform type-2 (Homo sapiens, UniProt P31153); experiment: Binding affinity to MAT2a (unknown origin) assessed as dissociation constant by ITC analysis
Sequence of S-adenosylmethionine synthase isoform type-2 (P31153 whole entry, canonical isoform): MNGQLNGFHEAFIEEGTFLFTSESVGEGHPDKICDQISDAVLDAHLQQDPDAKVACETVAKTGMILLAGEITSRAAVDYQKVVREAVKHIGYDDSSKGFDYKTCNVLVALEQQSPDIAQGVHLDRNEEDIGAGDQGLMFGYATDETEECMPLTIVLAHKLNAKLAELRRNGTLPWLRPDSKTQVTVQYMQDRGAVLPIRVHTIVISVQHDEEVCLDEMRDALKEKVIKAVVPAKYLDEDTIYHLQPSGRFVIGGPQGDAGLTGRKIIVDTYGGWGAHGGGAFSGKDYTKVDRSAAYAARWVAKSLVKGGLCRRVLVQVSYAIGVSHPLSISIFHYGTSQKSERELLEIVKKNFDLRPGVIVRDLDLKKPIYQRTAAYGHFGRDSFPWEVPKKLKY

[4] = Metabolic stability in human liver microsomes assessed as intrinsic clearance; type: ADME, Microsome
[5] = Oral bioavailability in mouse at 1 mg/kg; type: ADME, organism-based; conditions: in vivo
[6] = Apparent permeability in human Caco-2 cells at 10 uM; type: ADME, cell-based
[7] = Aqueous solubility in phosphate buffer at pH 7.4 measured after 24 hrs; type: physicochemical
animal or person [8] = conditions: Mus musculus, NCR nude, HCT116-MTAP null, po, read-out: INH
HCT116-MTAP null = experiment: Antitumor activity against human HCT116-MTAP null cells xenografted in NCR nude mouse assessed as reduction in tumor volume at 20 mg/kg, po administered twice daily for 24 days and measured twice weekly; type: functional, organism-based; conditions: time 24.0 day
[9] = Plasma protein binding in mouse assessed as free fraction by equilibrium dialysis; type: ADME, cell-free
[10] = Unbound fraction in nude mouse plasma at 30 mg/kg, po measured after 24 hrs; type: ADME, organism-based
[11] = Intrinsic clearance in mouse hepatocytes measured per 10^6 cells; type: ADME, cell-based, Hepatocyte; conditions: read-out: CLH
[12] = Plasma protein binding in dog assessed as free fraction by equilibrium dialysis; type: ADME, cell-free, Canis lupus familiaris
[13] = Plasma protein binding in human assessed as free fraction by equilibrium dialysis; type: ADME, cell-free
animal or person [14] = conditions: Mus musculus, NCR nude, HCT116-MTAP null, po, read-out: INH; remark: listed apart in the source
[15] = Volume of distribution at steady state in rat at 1 mg/kg, po or 0.5 mg/kg, iv; type: ADME, organism-based; conditions: in vivo
cells = conditions: Homo sapiens, HCT116-MTAP null, 120 h, read-out: pGI50 (converted)
[16] = Volume of distribution at steady state in mouse at 1 mg/kg, po or 0.5 mg/kg, iv; type: ADME, organism-based; conditions: in vivo
[17] = Half life in rat at 1 mg/kg, po or 0.5 mg/kg, iv; type: ADME, organism-based; conditions: in vivo
NCI-H441 = experiment: Antiproliferative activity against human NCI-H441 cells harboring MTAP knockout; type: functional, cell-based
[18] = Solubility in simulated gastric fluid at pH 1; type: ADME
[19] = Unbound brain-to-plasma concentration ratio in rat; type: ADME, cell-free; conditions: read-out: K(p,uu,brain)
[20] = Solubility in FeSSIF at pH 5; type: ADME
[21] = Plasma protein binding in rat assessed as free fraction by equilibrium dialysis; type: ADME, cell-free
[22] = Solubility in FaSSIF at pH 6.5; type: ADME
[23] = Half life in mouse at 1 mg/kg, po or 0.5 mg/kg, iv; type: ADME, organism-based; conditions: in vivo
[24] = Oral bioavailability in rat at 1 mg/kg; type: ADME, organism-based; conditions: in vivo
HCT-116 = experiment: cells; conditions: Homo sapiens, HCT-116, 120 h, read-out: pGI50 (converted)
PXR = target: T1, PXR (Homo sapiens, UniProt O75469); experiment: Activation of human PXR assessed as fold change at 10 uM relative to DMSO; type: toxicity; conditions: read-out: FC
T1 sequence (O75469 whole entry): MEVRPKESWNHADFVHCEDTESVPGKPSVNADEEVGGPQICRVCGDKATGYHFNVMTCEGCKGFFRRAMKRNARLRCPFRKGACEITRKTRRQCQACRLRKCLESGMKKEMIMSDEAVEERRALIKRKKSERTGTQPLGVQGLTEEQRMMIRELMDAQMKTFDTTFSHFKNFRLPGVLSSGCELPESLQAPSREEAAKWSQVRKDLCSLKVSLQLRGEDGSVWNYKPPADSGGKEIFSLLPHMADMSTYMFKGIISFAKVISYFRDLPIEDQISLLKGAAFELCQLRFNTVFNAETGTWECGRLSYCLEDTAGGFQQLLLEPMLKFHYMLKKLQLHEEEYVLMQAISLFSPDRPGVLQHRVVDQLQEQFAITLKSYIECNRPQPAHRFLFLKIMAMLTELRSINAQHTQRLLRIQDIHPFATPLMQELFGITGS

Cn1cc(-c2cc3[nH]nc(C4CC4)c3n(-c3ccc(OC(F)F)cc3)c2=O)ccc1=O
hepatocyte CLint [1]: < 1 µL/min/1e6 cells | logD [2]: 2

Cn1cc2cc(-c3cc4[nH]nc([C@@H]5CCOC5)c4n(-c4ccc(OC(F)F)cc4)c3=O)ccc2n1
hepatocyte CLint [1]: 4 µL/min/1e6 cells | logD [2]: 2.5

Cn1cc2cc(-c3cc4[nH]nc(C5CC5)c4n(-c4ccc(CCO)cc4)c3=O)ccc2n1
hepatocyte CLint [1]: 4 µL/min/1e6 cells | logD [2]: 2.3

CCc1n[nH]c2cc(-c3ccc4nn(C)cc4c3)c(=O)n(-c3ccc(OC(F)F)cc3)c12
hepatocyte CLint [1]: < 1 µL/min/1e6 cells | logD [2]: 3.1

CN(C)CCc1nnc2cc(-c3ccccc3)c3cc(Cl)ccc3n12
Kd [3]: 170 nM

O=c1ccc2[nH]nc(C3CC3)c2n1-c1ccc(OC(F)F)cc1
microsomal CLint [4]: < 3 µL/min/mg | hepatocyte CLint [1]: 1 µL/min/1e6 cells | logD [2]: 2.1

COc1ccc(-c2cc3[nH]nc(C4CC4)c3c(-c3ccc(OC(F)F)cc3)n2)cc1
microsomal CLint [4]: 21 µL/min/mg | hepatocyte CLint [1]: 26 µL/min/1e6 cells | logD [2]: > 4.5

Cn1cc2cc(-c3cc4[nH]nc(C5CC5)c4n(-c4ccc(OC(F)F)nc4)c3=O)ccc2n1
hepatocyte CLint [1]: < 1 µL/min/1e6 cells | logD [2]: 3

Cc1ccc(-n2c(=O)c(-c3ccc4nn(C)cc4c3)cc3[nH]nc(C4CC4)c32)cn1
hepatocyte CLint [1]: < 1 µL/min/1e6 cells | logD [2]: 2.2

Cc1ncc(-n2c(=O)c(-c3ccc4nn(C)cc4c3)cc3[nH]nc(C4CC4)c32)cn1
hepatocyte CLint [1]: < 1 µL/min/1e6 cells | logD [2]: 1.6

O=c1c(-c2ccc(O)cc2)cc2[nH]nc(C3CC3)c2n1-c1ccc(OC(F)F)cc1
hepatocyte CLint [1]: 2 µL/min/1e6 cells | logD [2]: 3.4

COc1ccc(-c2cc3[nH]nc(C4CC4)c3n(-c3ccc(OC(F)F)cc3)c2=O)cn1
hepatocyte CLint [1]: 3 µL/min/1e6 cells | logD [2]: 3.5

C[C@@H](O)c1ccc(-n2c(=O)c(-c3ccc4nn(C)cc4c3)cc3[nH]nc(C4CC4)c32)cc1
hepatocyte CLint [1]: 5 µL/min/1e6 cells | logD [2]: 2.4

Cn1cc2cc(-c3cc4[nH]nc(C5CC5)c4n(-c4ccc(Cl)cc4)c3=O)ccc2n1
hepatocyte CLint [1]: 5 µL/min/1e6 cells | logD [2]: 3.4

COc1ccc(-n2c(=O)c(-c3ccc4nn(C)cc4c3)cc3[nH]nc(C4CC4)c32)cc1
hepatocyte CLint [1]: 3 µL/min/1e6 cells | logD [2]: 2.8

Cn1cc2ccc(-c3cc4[nH]nc(C5CC5)c4n(-c4ccc(OC(F)F)cc4)c3=O)cc2n1
hepatocyte CLint [1]: 25 µL/min/1e6 cells | logD [2]: 3.4

[O-][n+]1ccc2[nH]nc(C3CC3)c2c1-c1ccc(OC(F)F)cc1
microsomal CLint [4]: < 3 µL/min/mg | hepatocyte CLint [1]: < 1 µL/min/1e6 cells | logD [2]: 1.6

Cn1cc2cc(-c3cc4[nH]nc(C5CC5)c4n(-c4ccc(OC(F)F)cc4)c3=O)ccc2n1
bioavailability [5]: 100% | Papp at 10 µM [6]: 9.4 ×10⁻⁶ cm/s | solubility at 24 h [7]: 3.2 µM (≈ 1.43 µg/mL) | inhibition in vivo at 20 mg/kg (animal or person [8]): > 90% | Activity (HCT116-MTAP null): Active | fraction unbound [9]: 0.03 | fraction unbound at 24 h [10]: 0.029 | hepatocyte CLint [11]: 1.4 µL/min/1e6 cells | fraction unbound [12]: 0.12 | fraction unbound [13]: 0.032 | inhibition in vivo at 20 mg/kg (animal or person [14]): > 90% | Vdss [15]: 0.8 L/kg | GI50 (cells): 79.4 nM | Vdss [16]: 5.5 L/kg | hepatocyte CLint [1]: < 1 µL/min/1e6 cells | half-life [17]: 6.3 h | Activity (NCI-H441): Active | solubility [18]: 70.4 µM (≈ 31.5 µg/mL) | logD [2]: 3.4 | Kp uu [19]: 0.03 | solubility [20]: 11.2 µM (≈ 5.01 µg/mL) | fraction unbound [21]: 0.006 | solubility [22]: 3.3 µM (≈ 1.48 µg/mL) | half-life [23]: 3 h | bioavailability [24]: 100%

FC(F)Oc1ccc(-c2nccc3[nH]nc(C4CC4)c23)cc1
microsomal CLint [4]: 54 µL/min/mg | hepatocyte CLint [1]: 20 µL/min/1e6 cells | logD [2]: 3.8

N#Cc1cc2[nH]nc(C3CC3)c2c(-c2ccc(OC(F)F)cc2)n1
microsomal CLint [4]: < 3 µL/min/mg | hepatocyte CLint [1]: 5 µL/min/1e6 cells | logD [2]: 3.9

CNc1ccc(-n2c(=O)c(-c3ccc4nn(C)cc4c3)cc3[nH]nc(C4CC4)c32)cn1
hepatocyte CLint [1]: < 1 µL/min/1e6 cells | logD [2]: 2.3

Cc1n[nH]c2cc(-c3ccc4nn(C)cc4c3)c(=O)n(-c3ccc(OC(F)F)cc3)c12
hepatocyte CLint [1]: < 1 µL/min/1e6 cells | logD [2]: 3

COc1ccc(-c2c3c(C4CC4)n[nH]c3cc[n+]2[O-])cc1
microsomal CLint [4]: < 3 µL/min/mg | hepatocyte CLint [1]: < 1 µL/min/1e6 cells | logD [2]: 1.3

Cc1nc2ccc(-c3cc4[nH]nc(C5CC5)c4n(-c4ccc(OC(F)F)cc4)c3=O)cc2n1C
hepatocyte CLint [1]: < 2 µL/min/1e6 cells | logD [2]: 3.5

Cn1nnc2ccc(-c3cc4[nH]nc(C5CC5)c4n(-c4ccc(OC(F)F)cc4)c3=O)cc21
hepatocyte CLint [1]: < 1 µL/min/1e6 cells | logD [2]: 3.1

CCc1ccc(-n2c(=O)c(-c3ccc4nn(C)cc4c3)cc3[nH]nc(C4CC4)c32)cn1
hepatocyte CLint [1]: 19 µL/min/1e6 cells | logD [2]: 2.4

COc1ccc(-c2cc3[nH]nc(C4CC4)c3n(-c3ccc(OC(F)F)cc3)c2=O)cc1
hepatocyte CLint [1]: 7 µL/min/1e6 cells | logD [2]: 4

COc1ccc(-c2c(Nc3ccccn3)[nH]c3c(C4=CCCCC4)c(-c4ccccc4)nn3c2=O)cc1
GI50 (cells): 501 nM | GI50 (HCT-116): 1580 nM

COc1ccc(-c2nccc3[nH]nc(C4CC4)c23)cc1
microsomal CLint [4]: 89 µL/min/mg | hepatocyte CLint [1]: 38 µL/min/1e6 cells | logD [2]: 3.3

Cc1ccc(-n2c(=O)c(-c3ccc4nn(C)cc4c3)cc3[nH]nc(C4CC4)c32)nc1
hepatocyte CLint [1]: 5 µL/min/1e6 cells | logD [2]: 2.2

Cn1cc2cc(-c3cc4[nH]nc(C5CC5)c4n(-c4ccc(OC(F)F)cn4)c3=O)ccc2n1
hepatocyte CLint [1]: 2 µL/min/1e6 cells | logD [2]: 2.5

Cn1cc2cc(-c3cc4[nH]nc(C5CC5)c4n(-c4ccc(CO)cc4)c3=O)ccc2n1
hepatocyte CLint [1]: 35 µL/min/1e6 cells | logD [2]: 2.2

COc1ccc(-n2cc3cnc(NCC(F)(F)F)nc3c(-c3ccc(Br)cc3)c2=O)cc1
fold induction at 10 µM (PXR): 25

Cc1ccc(-n2c(=O)c(-c3ccc4nn(C)cc4c3)cc3[nH]nc(C4CC4)c32)cc1
hepatocyte CLint [1]: 25 µL/min/1e6 cells | logD [2]: 3.3

O=c1c(-c2ccccc2)cc2[nH]nc(C3CC3)c2n1-c1ccc(OC(F)F)cc1
hepatocyte CLint [1]: 14 µL/min/1e6 cells | logD [2]: 4

COc1ccc(-c2cc3[nH]nc(C4CC4)c3n(-c3ccc(OC(F)F)cc3)c2=O)nc1
hepatocyte CLint [1]: 7 µL/min/1e6 cells | logD [2]: 3.4
